Consider two compounds from US10076550B2, “Synergistic pharmaceutical composition for gastroinestinal disorders” (COUNCIL OF SCIENTIFIC & INDUSTRIAL RESEARCH, priority 2014, dated 2018).

Where a name gives a salt, the structure may show the parent alone. Marks after values point to notes of the source that are not given here.

Type in all cases: in vivo
In assay [1] the test system is castor-oil induced diarrhea. The assay can be described thus: castor oil induced diarrhea in rats. To be noted: reference drug 5.0 mg/kg p.o., 2 mL castor oil after 60 min, observed 4 h. The procedure: The efficacy of composition as an antidiarrheal agent was evaluated using castor oil induced diarrhea. The castor oil model has been an extensively used pharmacological test to screen and evaluate antidiarrheal properties of drugs in rats. The liberation of ricinoleic acid from castor oil results in irritation and inflammation of intestinal mucosa, leading to release of prostaglandins, which stimulates motility and secretion (Pierce, N. F., Carpenter. C. C. J., Elliiot, H. Z. and Greenough, W. B., Effects of prostaglandins, Theophylline and cholera exotoxin upon transmucosalwater and electrolyte movement in canine jejunum, Gastroenterology, 1971; 60: 22-32). Castor oil is also reported to induce diarrhea by increasing the volume of intestinal content by prevention of the reabsorption of water. […] After 60 min each animal was given with 2 mL of castor oil by orogastric cannula, and placed in a separate cage and observed for 4 h defecation the characteristic diarrheal droppings were noted and recorded.
The castor oil model has been an extensively used pharmacological test to screen and evaluate antidiarrheal properties of drugs in rats. […] After 60 min each animal was given with 2 mL of castor oil by orogastric cannula, and placed in a separate cage and observed for 4 h defecation the characteristic diarrheal droppings were noted and recorded.

Assay [2] has as its system aspirin induced ulcers. The assay can be described thus: aspirin induced ulcers in rats. The conditions noted are these: aspirin 200 mg/kg, positive control, dose given as 50, mean ± SEM, six rats.
Experimental: The effect of the composition on ulcers was evaluated using aspirin induced ulcer model. […] Ulcers were scored after 4 h. The animals were sacrificed and the stomach was then excised and cut along the greater curvature, washed carefully with 5.0 ml of 0.9% NaCl and ulcers were scored in the glandular portion of the stomach. Ulcer index was calculated by adding the total number of ulcers per stomach and the total severity of ulcers per stomach.
The effect of the composition on ulcers was evaluated using aspirin induced ulcer model.
In assay [3] the test system is cold restrained stress (CRS) induced ulcers. The assay can be described thus: cold restrained stress (CRS) induced ulcers in rats. To be noted: positive control, dose given as 50, mean ± SEM, six rats.
Experimental: The effect of composition was further observed on cold resistant stress model of ulcer. […] Rats were starved for 48 hours, and the drinking solution was removed 1 hour before starting experiments. For cold-restraint s tress, the rats were restrained in individual close-fitting tubular wire-mesh cages at 4° C. […] At the end of 2 hours, all the rats were sacrificed. The ulcer index was scored, based upon the product of length and width of the ulcers present in the glandular portion of the stomach (mm^2/rat).
The effect of composition was further observed on cold resistant stress model of ulcer. […] Rats were starved for 48 hours, and the drinking solution was removed 1 hour before starting experiments. For cold-restraint stress, the rats were restrained in individual close-fitting tubular wire-mesh cages at 4° C.
Assay [4] relates to ethanol induced ulcers. The assay is described as follows: ethanol induced ulcers in rats. The conditions noted are these: EtOH 1 ml/200 g, positive control, dose given as 50, mean ± SEM, six rats.
Experimental: Further, effect of the composition was evaluated using ethanolinduced ulcer model. […] The ulcer index was scored, based upon the product of length and width of the ulcers present in the glandular portion of the stomach (mm^2/rat).
The ulcer index was scored, based upon the product of length and width of the ulcers present in the glandular portion of the stomach (mm^2/rat).
Assay [5] deals with pylorus ligation induced ulcers. The assay is described as follows: pylorus ligation (PL) induced ulcers in rats. To be noted: positive control, dose given as 50, mean ± SEM, six rats.
Experimental: The effect of the composition as an antiulcer agent was further justified using pylorus ligation (PL)-induced ulcer model. […] The mentioned drugs were administered for a period of 5 days as described above and the rats were kept for 18 h fasting and care was taken to avoid coprophagy. Animals were anaesthetized and the abdomen was opened and pylorus ligation was done without causing any damage to its blood supply. After 4 h, stomachs were dissected out and cut open along the greater curvature and ulcers were scored in the glandular portion of the stomach as mentioned in aspirin induced ulcers.
The effect of the composition as an antiulcer agent was further justified using pylorus ligation (PL)-induced ulcer model.
The mentioned drugs were administered for a period of 5 days as described above and the rats were kept for 18 h fasting and care was taken to avoid coprophagy. Animals were anaesthetized and the abdomen was opened and pylorus ligation was done without causing any damage to its blood supply. After 4 h, stomachs were dissected out and cut open along the greater curvature and ulcers were scored in the glandular portion of the stomach as mentioned in aspirin induced ulcers.

Take `CCOC(=O)C1(c2ccccc2)CCN(CCC(C#N)(c2ccccc2)c2ccccc2)CC1` [DiphenoxylateHCl, diphenoxylate HCl]: the “Total number of faecal matter” value in assay [1] was found to be 19.
Turning to `CNC(=C[N+](=O)[O-])NCCSCc1ccc(CN(C)C)o1` [Ranitidine, ranitidine], the “Ulcer Index” value is 7.6 ± 1.4^a in assay [2], 6.9 ± 1.0^c mm^2/rat in assay [3], 10.3 ± 2.8^a mm^2/rat in assay [4] and 4.9 ± 1.3^b in assay [5].
